From the NIST ThermoML archive (doi:10.1021/je400205g)
± gives the expanded uncertainty stated by the source.

Conditions: Transpiration method

vapor or sublimation pressure (309.15 K, Liquid) [kPa]	SMILES	vapor or sublimation pressure (263.15 K, Liquid) [kPa]	vapor or sublimation pressure (278.15 K, Liquid) [kPa]	vapor or sublimation pressure (293.15 K, Liquid) [kPa]	vapor or sublimation pressure (308.15 K, Liquid) [kPa]	other results
0.978 ± 0.039	C=CC(F)(F)C(F)(F)C(F)(F)C(F)(F)C(F)(F)C(F)(F)C(F)(F)C(F)(F)F					vapor or sublimation pressure (254.15 K, Liquid): 0.01269 ± 0.00078 kPa; vapor or sublimation pressure (272.45 K, Liquid): 0.06823 ± 0.003 kPa; vapor or sublimation pressure (290.75 K, Liquid): 0.2843 ± 0.012 kPa
	O=C(O)C(F)(F)OC(F)(F)C(F)(F)OC(F)(F)F	0.00451 ± 0.0011	0.02238 ± 0.0014	0.09288 ± 0.0041	0.3168 ± 0.013	
	O=C(O)C(F)(F)C(F)(F)C(F)(F)C(F)(F)C(F)(F)F [2,2,3,3,4,4,5,5,6,6,6-undecafluorohexanoic acid]			0.044 ± 0.0022	0.1656 ± 0.0068	vapor or sublimation pressure (263.15 K, Crystal): 0.00126 ± 0.001 kPa; vapor or sublimation pressure (270.15 K, Crystal): 0.00294 ± 0.001 kPa; vapor or sublimation pressure (278.15 K, Crystal): 0.00791 ± 0.0011 kPa; vapor or sublimation pressure (283.15 K, Crystal): 0.0134 ± 0.0012 kPa; vapor or sublimation pressure (285.15 K, Crystal): 0.01726 ± 0.0014 kPa; vapor or sublimation pressure (290.15 K, Crystal): 0.03551 ± 0.0018 kPa; vapor or sublimation pressure (300.15 K, Liquid): 0.08434 ± 0.0037 kPa
0.217 ± 0.0086	OCCCC(F)(F)C(F)(F)C(F)(F)C(F)(F)F [4,4,5,5,6,6,7,7,7-nonafluoro-1-heptanol]			0.05717 ± 0.0027		vapor or sublimation pressure (255.65 K, Liquid): 0.00087 ± 8e-05 kPa; vapor or sublimation pressure (273.15 K, Liquid): 0.00765 ± 0.00033 kPa; vapor or sublimation pressure (282.45 K, Liquid): 0.02121 ± 0.00096 kPa
	CCOC(=O)C(F)(F)C(F)(F)C(F)(F)C(F)(F)C(F)(F)C(F)(F)C(F)(F)F [ethyl perfluorooctanoate]	0.00516 ± 0.0011	0.02313 ± 0.0014	0.08988 ± 0.0038	0.2649 ± 0.011	
